Assays:
Format in all cases: in vivo
large crabgrass [1] = assay: Test Example 4: herbicidal effect in foliage treatment; conditions: dose 6.3 g/a, three weeks after the application
Summary of the method: (§1)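 Doses are given in grams per are of applied compound, sprayed as water-diluted emulsifiable concentrate onto foliage of 14-day-old plants grown at 25 to 30° C. Herbicidal activity was assessed visually on a rating scale after three weeks.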

giant foxtail [2] = assay: as above; conditions: dose 6.3 g/a, three weeks after the application
Summary of the method: as §1

common ragweed [3] = assay: as above; conditions: dose 6.3 g/a, three weeks after the application
Summary of the method: as §1

Italian ryegrass [4] = assay: as above; conditions: dose 6.3 g/a, three weeks after the application
Summary of the method: as §1

beadstraw = assay: as above; conditions: dose 6.3 g/a, three weeks after the application
Summary of the method: as §1

common lambsquater [5] = assay: as above; conditions: dose 6.3 g/a, three weeks after the application
Summary of the method: as §1

common chickweed [6] = assay: as above; conditions: dose 6.3 g/a, three weeks after the application
Summary of the method: as §1

barnyardgrass [7] = assay: as above; conditions: dose 6.3 g/a, three weeks after the application
Summary of the method: as §1

water foxtail [8] = assay: as above; conditions: dose 6.3 g/a, three weeks after the application
Summary of the method: as §1

wild oat [9] = assay: as above; conditions: dose 6.3 g/a, three weeks after the application
Summary of the method: as §1

bulrush [10] = assay: Test Example 1: herbicidal effects in preemergence treatment under submerged conditions; conditions: dose 2.52 g/a
Summary of the method: (§2)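 Weed seeds and 2.5-leaf rice seedlings shared each flooded cup of alluvial soil. Dosing, expressed as g per are, was by pouring water-diluted emulsifiable concentrate onto the surface on sowing day. Mortality was graded 0 to 5 after three weeks' growth.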

ducksalad [11] = assay: as above; conditions: dose 2.52 g/a
Summary of the method: as §2

barnyardgrass [12] = assay: as above; conditions: dose 2.52 g/a
Summary of the method: as §2

direct-seeded rice [13] = assay: Test Example 4: foliage treatment, effect on crop; conditions: dose 6.3 g/a, three weeks after the application
Description: (§3) Test on the Herbicidal Effect in Foliage Treatment
(§4) Sterilized diluvial soil was put in plastic boxes with a length of 21 cm, a width of 13 cm and a depth of 7 cm, and seeds of barnyardgrass, large crabgrass, giant foxtail, wild oat, blackgrass, velvetleaf, common ragweed, redroot pigweed, common lambsquater, posumbu knotweed, common chickweed, corn, soybean, rice, wheat and sugar beet were sown in spots and covered with an about 1.5 cm-thick soil layer. The boxes were placed in a greenhouse at 25 to 30° C. to grow the plants. After 14 days, emulsifiable concentrates containing compounds of the present invention formulated in accordance with Formulation Example 2 were uniformly applied to the foliage at predetermined doses through a small sprayer after diluted with water. Three weeks after the application, the herbicidal effects against various plants were determined on the same evaluation scale as in Test Example 1.
(§5) A: barnyardgrass, B: bulrush, C: ducksalad, D: large crabgrass, E: giant foxtail, F: wild oat, G: water foxtail, H: Italian ryegrass, I: velvetleaf, J: common ragweed, K: redroot pigweed, L: common lambsquater, M: posumbu knotweed, N: common chickweed, O: beadstraw, a: transplanted rice, b: corn, c: soybean, d: direct-seeded rice, e: wheat, f: sugar beet.
(§6) The doses (g/a) represents the amounts in g per 1 are (a) applied after adjustment of concentration adjustment.

soybean [14] = assay: Test Example 4: foliage treatment, effect on crop; conditions: dose 6.3 g/a, three weeks after the application
Description: as §3, §4, §5, §6

sugar beet [15] = assay: Test Example 4: foliage treatment, effect on crop; conditions: dose 6.3 g/a, three weeks after the application
Description: as §3, §4, §5, §6

wheat [16] = assay: Test Example 4: foliage treatment, effect on crop; conditions: dose 6.3 g/a, three weeks after the application
Description: as §3, §4, §5, §6

corn [17] = assay: Test Example 4: foliage treatment, effect on crop; conditions: dose 6.3 g/a, three weeks after the application
Description: as §3, §4, §5, §6

bulrush [18] = assay: Test Example 2: herbicidal effects during the vegetation period under submerged conditions; conditions: treatment during the vegetation period under submerged conditions; dose 2.52 g/a
Summary of the method: (§7)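 Barnyardgrass, bulrush and ducksalad were co-sown in alluvial soil flooded to 4 cm and grown in a greenhouse at 25 to 30° C. At the 1- or 2-leaf stage, water-diluted emulsifiable concentrates went onto the water surface at set doses (g/a). Herbicidal effect was scored three weeks later on a graded scale.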

ducksalad [19] = assay: as above; conditions: treatment during the vegetation period under submerged conditions; dose 2.52 g/a
Summary of the method: as §7

barnyardgrass [20] = assay: as above; conditions: treatment during the vegetation period under submerged conditions; dose 2.52 g/a
Summary of the method: as §7

direct-seeded rice [21] = assay: Test Example 3: soil treatment, effect on crop; conditions: dose 6.3 g/a
Description: (§8) Test on the Herbicidal Effects in Soil Treatment
as §4, with “chickweed” for “chickweed,”, “Emulsifiable” for “The boxes were placed in a greenhouse at 25 to 30° C. to grow the plants. After 14 days, emulsifiable”, “soil surfaces” for “foliage”, “dilute” for “diluted”
as §5, §6

soybean [22] = assay: Test Example 3: soil treatment, effect on crop; conditions: dose 6.3 g/a
Description: as §8
as §4, with “chickweed” for “chickweed,”, “Emulsifiable” for “The boxes were placed in a greenhouse at 25 to 30° C. to grow the plants. After 14 days, emulsifiable”, “soil surfaces” for “foliage”, “dilute” for “diluted”
as §5, §6

sugar beet [23] = assay: Test Example 3: soil treatment, effect on crop; conditions: dose 6.3 g/a
Description: as §8
as §4, with “chickweed” for “chickweed,”, “Emulsifiable” for “The boxes were placed in a greenhouse at 25 to 30° C. to grow the plants. After 14 days, emulsifiable”, “soil surfaces” for “foliage”, “dilute” for “diluted”
as §5, §6

wheat [24] = assay: Test Example 3: soil treatment, effect on crop; conditions: dose 6.3 g/a
Description: as §8
as §4, with “chickweed” for “chickweed,”, “Emulsifiable” for “The boxes were placed in a greenhouse at 25 to 30° C. to grow the plants. After 14 days, emulsifiable”, “soil surfaces” for “foliage”, “dilute” for “diluted”
as §5, §6

corn [25] = assay: Test Example 3: soil treatment, effect on crop; conditions: dose 6.3 g/a
Description: as §8
as §4, with “chickweed” for “chickweed,”, “Emulsifiable” for “The boxes were placed in a greenhouse at 25 to 30° C. to grow the plants. After 14 days, emulsifiable”, “soil surfaces” for “foliage”, “dilute” for “diluted”
as §5, §6

large crabgrass [26] = assay: Test Example 3: herbicidal effects in soil treatment; conditions: dose 6.3 g/a
Summary of the method: (§9)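 Seeds were sown in sterilized diluvial soil and covered with about 1.5 cm of soil. Compounds, formulated as emulsifiable concentrates and diluted with water, were sprayed evenly over the soil surface at set doses in g/a. Herbicidal effect was scored on a rating scale three weeks later.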

giant foxtail [27] = assay: as above; conditions: dose 6.3 g/a
Summary of the method: as §9

common ragweed [28] = assay: as above; conditions: dose 6.3 g/a
Summary of the method: as §9

Italian ryegrass [29] = assay: as above; conditions: dose 6.3 g/a
Summary of the method: as §9

common lambsquater [30] = assay: as above; conditions: dose 6.3 g/a
Summary of the method: as §9

common chickweed [31] = assay: as above; conditions: dose 6.3 g/a
Summary of the method: as §9

barnyardgrass [32] = assay: as above; conditions: dose 6.3 g/a
Summary of the method: as §9

water foxtail [33] = assay: as above; conditions: dose 6.3 g/a
Summary of the method: as §9

wild oat [34] = assay: as above; conditions: dose 6.3 g/a
Summary of the method: as §9

transplanted rice = assay: Test Example 1: preemergence treatment under submerged conditions, effect on crop; conditions: dose 2.52 g/a
Summary of the method: as §2

CCOC(=O)N(c1ccccc1CN1CCOCCC1=O)S(=O)(=O)C(F)(F)F [Compound V-2]
D: large crabgrass, herbicidal effect (large crabgrass [1]): 2 (mortality of at least 20% and less than 40%) | E: giant foxtail, herbicidal effect (giant foxtail [2]): 4 (mortality of at least 70% and less than 90%) | J: common ragweed, herbicidal effect (common ragweed [3]): 5 (mortality of 90% or above (nearly complete death)) | H: Italian ryegrass, herbicidal effect (Italian ryegrass [4]): 0 (mortality of less than 5% (almost ineffective)) | O: beadstraw, herbicidal effect (beadstraw): 3 (mortality of at least 40% and less than 70%) | L: common lambsquater, herbicidal effect (common lambsquater [5]): 5 (mortality of 90% or above (nearly complete death)) | N: common chickweed, herbicidal effect (common chickweed [6]): 4 (mortality of at least 70% and less than 90%) | A: barnyardgrass, herbicidal effect (barnyardgrass [7]): 5 (mortality of 90% or above (nearly complete death)) | G: water foxtail, herbicidal effect (water foxtail [8]): 5 (mortality of 90% or above (nearly complete death)) | F: wild oat, herbicidal effect (wild oat [9]): 0 (mortality of less than 5% (almost ineffective)) | B: bulrush, herbicidal effect (evaluation scale 0-5) (bulrush [10]): 5 (mortality of 90% or above (nearly complete death)) | C: ducksalad, herbicidal effect (evaluation scale 0-5) (ducksalad [11]): 5 (mortality of 90% or above (nearly complete death)) | A: barnyardgrass, herbicidal effect (evaluation scale 0-5) (barnyardgrass [12]): 5 (mortality of 90% or above (nearly complete death)) | d: direct-seeded rice, effect on crop (direct-seeded rice [13]): 3 (mortality of at least 40% and less than 70%) | c: soybean, effect on crop (soybean [14]): 3 (mortality of at least 40% and less than 70%) | f: sugar beet, effect on crop (sugar beet [15]): 3 (mortality of at least 40% and less than 70%) | e: wheat, effect on crop (wheat [16]): 0 (mortality of less than 5% (almost ineffective)) | b: corn, effect on crop (corn [17]): 1 (mortality of at least 5% and less than 20%) | B: bulrush, herbicidal effect (evaluation scale 0-5) (bulrush [18]): 5 (mortality of 90% or above (nearly complete death)) | C: ducksalad, herbicidal effect (evaluation scale 0-5) (ducksalad [19]): 5 (mortality of 90% or above (nearly complete death)) | A: barnyardgrass, herbicidal effect (evaluation scale 0-5) (barnyardgrass [20]): 4 (mortality of at least 70% and less than 90%) | effect on crop, d: direct-seeded rice (direct-seeded rice [21]): 0 (mortality of less than 5% (almost ineffective)) | effect on crop, c: soybean (soybean [22]): 0 (mortality of less than 5% (almost ineffective)) | effect on crop, f: sugar beet (sugar beet [23]): 4 (mortality of at least 70% and less than 90%) | effect on crop, e: wheat (wheat [24]): 0 (mortality of less than 5% (almost ineffective)) | effect on crop, b: corn (corn [25]): 0 (mortality of less than 5% (almost ineffective)) | herbicidal effect, D: large crabgrass (large crabgrass [26]): 1 (mortality of at least 5% and less than 20%) | herbicidal effect, E: giant foxtail (giant foxtail [27]): 3 (mortality of at least 40% and less than 70%) | herbicidal effect, J: common ragweed (common ragweed [28]): 5 (mortality of 90% or above (nearly complete death)) | herbicidal effect, H: Italian ryegrass (Italian ryegrass [29]): 0 (mortality of less than 5% (almost ineffective)) | herbicidal effect, L: common lambsquater (common lambsquater [30]): 5 (mortality of 90% or above (nearly complete death)) | herbicidal effect, N: common chickweed (common chickweed [31]): 5 (mortality of 90% or above (nearly complete death)) | herbicidal effect, A: barnyardgrass (barnyardgrass [32]): 4 (mortality of at least 70% and less than 90%) | herbicidal effect, G: water foxtail (water foxtail [33]): 5 (mortality of 90% or above (nearly complete death)) | herbicidal effect, F: wild oat (wild oat [34]): 0 (mortality of less than 5% (almost ineffective)) | a: transplanted rice, effect on crop (evaluation scale 0-5) (transplanted rice): 0 (mortality of less than 5% (almost ineffective))

Source: patent US20120029187A1, “HALOALKYLSULFONANILIDE DERIVATIVE” (Nissan Chemical Industries, Ltd., priority 2009, published 2012)
